Assay results from ChEMBL document CHEMBL5113470, “Regioselective pyrrolizidine bis-spirooxindoles as efficient anti-amyloidogenic agents” (2022).
Calls of active or inactive are those of the source. The calls are words filed in the database; no cut-off is given here.

organism: Gallus gallus; assay: Inhibition of Hen egg white lysozyme fibril formation assessed as shorter fibrils after day 7 by TEM analysis; conditions: not given

Row | SMILES | inhibition
1 | COc1ccc(C(=O)[C@@H]2C3CCCN3[C@@]3(C(=O)Nc4ccccc43)[C@@]23C(=O)Nc2ccccc23)cc1 (some centres undefined) | Active
2 | O=C(c1ccccc1)[C@@H]1C2CCCN2[C@@]2(C(=O)Nc3ccccc32)[C@@]12C(=O)Nc1ccccc12 (some centres undefined) | Active
3 | COc1cccc(C(=O)[C@@H]2C3CCCN3[C@@]3(C(=O)Nc4ccccc43)[C@@]23C(=O)Nc2ccccc23)c1 (some centres undefined) | Active

organism: Gallus gallus; assay: Inhibition of Hen egg white lysozyme fibril formation assessed as decrease in conformational transition from alpha-helix to beta-sheet after 7 days by Raman spectroscopic assay; conditions: time 7.0 day

Row | SMILES | inhibition
4 | COc1ccc(C(=O)[C@@H]2C3CCCN3[C@@]3(C(=O)Nc4ccccc43)[C@@]23C(=O)Nc2ccccc23)cc1 (some centres undefined) | Active
5 | O=C(c1ccccc1)[C@@H]1C2CCCN2[C@@]2(C(=O)Nc3ccccc32)[C@@]12C(=O)Nc1ccccc12 (some centres undefined) | Active
6 | COc1cccc(C(=O)[C@@H]2C3CCCN3[C@@]3(C(=O)Nc4ccccc43)[C@@]23C(=O)Nc2ccccc23)c1 (some centres undefined) | Active

organism: Gallus gallus; assay: Inhibition of Hen egg white lysozyme fibril formation by Circular dichroism; conditions: not given

Row | SMILES | inhibition
7 | COc1ccc(C(=O)[C@@H]2C3CCCN3[C@@]3(C(=O)Nc4ccccc43)[C@@]23C(=O)Nc2ccccc23)cc1 (some centres undefined) | Active
8 | O=C(c1ccccc1)[C@@H]1C2CCCN2[C@@]2(C(=O)Nc3ccccc32)[C@@]12C(=O)Nc1ccccc12 (some centres undefined) | Active
9 | COc1cccc(C(=O)[C@@H]2C3CCCN3[C@@]3(C(=O)Nc4ccccc43)[C@@]23C(=O)Nc2ccccc23)c1 (some centres undefined) | Active

tested on: not listed separately; assay: Inhibition of HEWL fibril-induced toxicity in human HEK cells assessed as cell viability by MTT assay ( Rvb = 55.2 +/- 7.2%); format: functional; conditions: not given

Row | SMILES | Activity [%]
10 | COc1ccc(C(=O)[C@@H]2C3CCCN3[C@@]3(C(=O)Nc4ccccc43)[C@@]23C(=O)Nc2ccccc23)cc1 (some centres undefined) | 47.7
11 | O=C(c1ccccc1)[C@@H]1C2CCCN2[C@@]2(C(=O)Nc3ccccc32)[C@@]12C(=O)Nc1ccccc12 (some centres undefined) | 59.6
12 | CC[C@H]1CN2CC[C@]3(C(=O)Nc4ccccc43)[C@@H]2C[C@@H]1/C(=C\OC)C(=O)OC [RHYNCHOPHYLLINE] | 77
13 | COc1cccc(C(=O)[C@@H]2C3CCCN3[C@@]3(C(=O)Nc4ccccc43)[C@@]23C(=O)Nc2ccccc23)c1 (some centres undefined) | 64.8

organism: Gallus gallus; assay: Inhibition of Hen egg white lysozyme fibril formation by Thioflavin T spectroscopic assay relative to control; design: concentration or dose not given beside the values; conditions: dose or concentration not given here

Row | SMILES | inhibition [%]
14 | COc1ccc(C(=O)[C@@H]2C3CCCN3[C@@]3(C(=O)Nc4ccccc43)[C@@]23C(=O)Nc2ccccc23)cc1 (some centres undefined) | 45.3
15 | O=C(c1ccccc1)[C@@H]1C2CCCN2[C@@]2(C(=O)Nc3ccccc32)[C@@]12C(=O)Nc1ccccc12 (some centres undefined) | 22.7
16 | CC[C@H]1CN2CC[C@]3(C(=O)Nc4ccccc43)[C@@H]2C[C@@H]1/C(=C\OC)C(=O)OC [RHYNCHOPHYLLINE] | 37.6
17 | O=C(O[C@@H]1Cc2c(O)cc(O)cc2O[C@@H]1c1cc(O)c(O)c(O)c1)c1cc(O)c(O)c(O)c1 | 24.4
18 | CC[C@H]1CN2CC[C@@]3(C(=O)Nc4ccccc43)[C@@H]2C[C@@H]1/C(=C\OC)C(=O)OC | 30.4
19 | COc1cccc(C(=O)[C@@H]2C3CCCN3[C@@]3(C(=O)Nc4ccccc43)[C@@]23C(=O)Nc2ccccc23)c1 (some centres undefined) | 20.3
